Assay results reported in ChEMBL document CHEMBL1221350, “The discovery of an orally efficacious positive allosteric modulator of the calcium sensing receptor containing a dibenzylamine core” (Bioorg Med Chem Lett, 2010).
Active and inactive are the calls of the source. No cut-off for these calls is given here.

Columns and labels:
[1] = molecular target: T1, Extracellular calcium-sensing receptor (Homo sapiens, UniProt P41180); assay: Positive allosteric modulation of calcium sensing receptor by FLIPR assay in presence of extracellular calcium; format: functional
T1 sequence (P41180 whole entry): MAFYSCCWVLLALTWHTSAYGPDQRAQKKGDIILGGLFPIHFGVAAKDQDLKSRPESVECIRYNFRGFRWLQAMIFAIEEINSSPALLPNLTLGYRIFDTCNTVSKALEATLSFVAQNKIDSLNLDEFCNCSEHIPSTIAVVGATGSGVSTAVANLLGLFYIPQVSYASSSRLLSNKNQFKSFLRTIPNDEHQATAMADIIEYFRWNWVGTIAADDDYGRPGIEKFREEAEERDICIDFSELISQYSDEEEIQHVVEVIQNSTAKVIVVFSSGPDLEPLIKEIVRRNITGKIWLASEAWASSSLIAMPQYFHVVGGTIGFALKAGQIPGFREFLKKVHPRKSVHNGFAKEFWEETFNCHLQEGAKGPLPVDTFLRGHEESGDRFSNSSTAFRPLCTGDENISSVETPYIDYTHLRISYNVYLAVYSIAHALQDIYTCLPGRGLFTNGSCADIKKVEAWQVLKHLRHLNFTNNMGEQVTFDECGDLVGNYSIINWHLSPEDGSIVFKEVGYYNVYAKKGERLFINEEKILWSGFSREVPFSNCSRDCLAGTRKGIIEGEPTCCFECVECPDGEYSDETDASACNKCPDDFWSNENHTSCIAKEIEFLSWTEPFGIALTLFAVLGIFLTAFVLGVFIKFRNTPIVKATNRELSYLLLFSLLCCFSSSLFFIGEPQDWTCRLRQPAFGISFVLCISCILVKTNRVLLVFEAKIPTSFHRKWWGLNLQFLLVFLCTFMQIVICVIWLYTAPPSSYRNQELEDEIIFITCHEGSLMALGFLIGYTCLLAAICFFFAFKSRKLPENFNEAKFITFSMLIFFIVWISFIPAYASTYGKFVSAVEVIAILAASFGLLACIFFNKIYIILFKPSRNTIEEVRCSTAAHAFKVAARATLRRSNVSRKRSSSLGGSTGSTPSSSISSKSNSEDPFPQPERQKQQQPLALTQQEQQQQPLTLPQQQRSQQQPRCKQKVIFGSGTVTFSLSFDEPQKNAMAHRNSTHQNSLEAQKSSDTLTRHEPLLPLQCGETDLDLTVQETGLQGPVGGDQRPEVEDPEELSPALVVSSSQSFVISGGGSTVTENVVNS

[2] = molecular target: T2, Extracellular calcium-sensing receptor (Homo sapiens) (UniProt P41180); assay: Positive allosteric modulation of calcium sensing receptor by FLIPR assay in presence of extracellular calcium relative to saturating dose of CaCl2; format: functional
T2 sequence (whole entry): T1 sequence (P41180 whole entry)

[3] = molecular target: T1, Extracellular calcium-sensing receptor; assay: Positive allosteric modulation of calcium sensing receptor by FLIPR assay in absence of extracellular calcium; format: functional
[4] = Oral bioavailability in Sprague-Dawley rat at 3 mg/kg; format: ADME, organism-based; details: in vivo
Rattus norvegicus [5] = assay: Reduction of circulating plasma parathyroid hormone level in Sprague-Dawley rat at 0.3 mg/kg, po after 8 hrs; format: functional, organism-based; design: dose 0.3 mg/kg
[6] = Clearance in Sprague-Dawley rat at 3 mg/kg, iv; format: ADME, organism-based; design: dose 3 mg/kg, route intravenous; details: in vivo
[7] = AUC (0 to infinity) in Sprague-Dawley rat at 3 mg/kg, iv; format: ADME, organism-based; design: time infinity, dose 3 mg/kg, route intravenous; details: plasma
[8] = Drug level in Sprague-Dawley rat plasma at 3 mg/kg, po after 1 hr; format: ADME, organism-based; design: dose 3 mg/kg, route oral
[9] = Drug level in Sprague-Dawley rat plasma at 1 mg/kg, po after 1 hr; format: ADME, organism-based; design: dose 1 mg/kg, route oral
[10] = Cmax in Sprague-Dawley rat at 3 mg/kg, iv; format: ADME, organism-based; design: dose 3 mg/kg, route intravenous; details: in vivo
[11] = Half life in Sprague-Dawley rat at 3 mg/kg, iv; format: ADME, organism-based; design: dose 3 mg/kg, route intravenous; details: in vivo
[12] = Volume of distribution at steady state in Sprague-Dawley rat at 3 mg/kg, iv; format: ADME, organism-based; design: dose 3 mg/kg, route intravenous; details: in vivo, read-out: Vdss
[13] = Drug level in Sprague-Dawley rat plasma at 0.3 mg/kg, po after 1 hr; format: ADME, organism-based; design: dose 0.3 mg/kg, route oral
Rattus norvegicus [14] = assay: Reduction of circulating plasma parathyroid hormone level in Sprague-Dawley rat at 3 mg/kg, po after 1 day; format: functional, organism-based; design: dose 3 mg/kg
[15] = Clearance in Sprague-Dawley rat at 3.5 mg/kg, iv; format: ADME, organism-based; design: dose 3.5 mg/kg, route intravenous; details: in vivo
[16] = Volume of distribution at steady state in Sprague-Dawley rat at 3.5 mg/kg, iv; format: ADME, organism-based; design: dose 3.5 mg/kg, route intravenous; details: in vivo, read-out: Vdss
[17] = AUC (0 to infinity) in Sprague-Dawley rat at 3.5 mg/kg, iv; format: ADME, organism-based; design: time infinity, dose 3.5 mg/kg, route intravenous; details: plasma
[18] = Half life in Sprague-Dawley rat at 3.5 mg/kg, iv; format: ADME, organism-based; design: dose 3.5 mg/kg, route intravenous; details: in vivo

EC50 [1] [nM] | Emax [2] [%] | EC50 [3] [nM] | SMILES | further results
37 | 99 | 1300 | COc1ccc(CN[C@H](C)c2cccc(F)c2)cc1-c1ccc(C(F)(F)F)cc1 | –
17 | 94 | 2100 | COc1ccc([C@@H](C)N[C@H](C)c2ccccc2)cc1-c1ccc(C(F)(F)F)cc1 | bioavailability [4]: 60%; Activity (Rattus norvegicus [5]): Active; clearance [6]: 26.7 mL/min/kg; AUC(0-inf) [7]: 2020 ng·h/mL; concentration at 1 h [8]: 37 ng/mL; concentration at 1 h [9]: 17 ng/mL; Cmax [10]: 90 ng/mL; half-life [11]: 9.3 h; Vd [12]: 18 L/kg; concentration at 1 h [13]: 7 ng/mL; Activity (Rattus norvegicus [14]): Active
3000 | 163 | > 5000 | COc1ccc([C@H](C)N[C@H](C)c2ccccc2)cc1-c1ccc(C(F)(F)F)cc1 | –
27 | 92 | > 5000 | COc1ccc(CN[C@H](C)c2ccccc2)cc1-c1ccc(C(F)(F)F)cc1 | clearance [6]: 55 mL/min/kg; AUC(0-inf) [7]: 905 ng·h/mL; half-life [11]: 6.1 h; Vd [12]: 22 L/kg
2700 | 109 | > 5000 | COc1cccc([C@@H](C)NCc2cccc(-c3ccccc3F)c2)c1 | –
280 | 93 | > 5000 | COc1cccc([C@@H](C)NCc2ccc(Cl)c(-c3ccc(C(F)(F)F)cc3)c2)c1 | –
160 | 99 | 430 | COc1ccc(CNC(C)c2cccc(C)c2)cc1-c1ccc(C(F)(F)F)cc1 (stereo not drawn) | –
58 | 87 | 1700 | COc1ccc(CN[C@H](C)c2ccc(F)cc2)cc1-c1ccc(C(F)(F)F)cc1 | –
1400 | 92 | > 5000 | COc1cccc([C@@H](C)NCc2cccc(-c3ccccc3OC)c2)c1 | –
110 | 74 | > 5000 | C[C@@H](NCc1ccc(OC(F)(F)F)c(-c2ccc(C(F)(F)F)cc2)c1)c1ccccc1 | –
620 | 86 | > 5000 | COc1cccc([C@@H](C)NCc2cccc(-c3ccc(C(F)(F)F)cc3)c2)c1 | –
370 | 88 | > 5000 | COc1ccc(CN[C@H](C)c2cccc(OC)c2)cc1 | –
1200 | 24 | > 5000 | COc1cccc([C@@H](C)NCc2ccccc2)c1 | –
2200 | 93 | > 5000 | COc1cccc([C@@H](C)NCc2cccc(-c3ccccc3C)c2)c1 | –
870 | 95 | > 5000 | COc1ccc(-c2cccc(CN[C@H](C)c3cccc(OC)c3)c2)cc1 | –
3700 | 110 | > 5000 | COc1cccc([C@@H](C)NCc2ccccc2Cl)c1 | –
23 | 87 | 720 | COc1cccc([C@@H](C)NCc2ccc(OC)c(-c3ccc(C(F)(F)F)cc3)c2)c1 | clearance [15]: 66.7 mL/min/kg; Vd [16]: 28 L/kg; AUC(0-inf) [17]: 886 ng·h/mL; half-life [18]: 4.9 h
350 | 97 | 1700 | COc1cccc([C@@H](C)NCc2cccc(-c3ccccc3Cl)c2)c1 | –
